The OligoGym collection
After the bases stand the sugars from the 5' end (letter, count) and the backbone: PS all phosphorothioate, else s phosphorothioate and o phosphodiester by linkage. Methylation of C is not given here. e = 2'-O-(2-methoxyethyl) (MOE); k = constrained ethyl (cEt); d = 2'-deoxy (DNA); m = 2'-O-methyl

Target: HSD17B13
Details: ASO, HepaRG

Row | Sequence | target mRNA inhibition (1 µM) | further results
1 | AAAAAAGCTTATCGAG (sugars k3 d10 k3, PS) | 7% | –
2 | AAAAAATTGGTTTCGA (sugars k3 d10 k3, PS) | 20% | –
3 | AAAAATTGGTTTCGAA (sugars k3 d10 k3, PS) | 13% | –
4 | AAAAGACTTTGAGACT (sugars k3 d10 k3, PS) | 32% | –
5 | AAAATGGTGGCGAGGC (sugars k3 d10 k3, PS) | 0% | –
6 | AAACAAGAGGATAGTC (sugars k3 d10 k3, PS) | 48% | –
7 | AAACAAGAGGATAGTC (sugars kkdddddddddkekek, PS) | 52% | –
8 | AAACATAGGCTTAGTG (sugars k3 d10 k3, PS) | 16% | –
9 | AAACATCTCTGGGACC (sugars k3 d1 m1 d8 k3, PS) | 66% | –
10 | AAACATCTCTGGGACC (sugars k3 d9 k3 e1, PS) | 48% | –
11 | AAACATCTCTGGGACC (sugars kkdddddddddkekek, PS) | 36% | –
12 | AAACCTTCCCTGTGTA (sugars k3 d10 k3, PS) | 34% | –
13 | AAACTAGGAAGTGATC (sugars k3 d10 k3, PS) | 39% | –
14 | AAACTTGATCTCTTAG (sugars k3 d10 k3, PS) | 61% | –
15 | AAAGACTTTGAGACTC (sugars k3 d10 k3, PS) | 68% | target mRNA inhibition (0.02 µM): 0%; target mRNA inhibition (0.078 µM): 18%; target mRNA inhibition (0.313 µM): 40%; target mRNA inhibition (1.25 µM): 65%; target mRNA inhibition (5 µM): 87%
16 | AAAGTGTCCTCGATCC (sugars k3 d10 k3, PS) | 36% | –
17 | AAAGTTCATTCGAATT (sugars k3 d10 k3, PS) | 63% | –
18 | AAAGTTTGTTAGAGTG (sugars k3 d10 k3, PS) | 75% | target mRNA inhibition (0.02 µM): 0%; target mRNA inhibition (0.078 µM): 6%; target mRNA inhibition (0.313 µM): 0%; target mRNA inhibition (1.25 µM): 55%; target mRNA inhibition (5 µM): 78%
19 | AAATAGAGTCGGTCAC (sugars k3 d1 m1 d8 k3, PS) | 63% | –
20 | AAATATGTCCAGGTTG (sugars k3 d1 m1 d8 k3, PS) | 63% | –
21 | AAATGAGGCGGCACTC (sugars k3 d10 k3, PS) | 20% | –
22 | AAATGTCCTAGGATGT (sugars k3 d10 k3, PS) | 36% | –
23 | AACAGTTTAGATTGCA (sugars k3 d10 k3, PS) | 71% | –
24 | AACATAGGCTTAGTGT (sugars k3 d10 k3, PS) | 18% | –
25 | AACATCTCTGGGACCA (sugars kkdddddddddkekek, PS) | 36% | –
26 | AACAUCTCTGGGACCA (sugars k3 d1 m1 d8 k3, PS) | 64% | –
27 | AACCAATCCTCAGCTT (sugars k3 d10 k3, PS) | 0% | –

Row | Sequence | target mRNA inhibition (1 µM) | further results
28 | AACCATAGGACATGGA (sugars k3 d10 k3, PS) | 71% | –
29 | AACCTAATAACTACAT (sugars k3 d10 k3, PS) | 0% | –
30 | AACCTTCCCTGTGTAA (sugars k3 d10 k3, PS) | 38% | –
31 | AACTAGGAAGTGATCC (sugars k3 d10 k3, PS) | 58% | –
32 | AACTCCGTTATAAGTT (sugars k3 d10 k3, PS) | 11% | –
33 | AACTTGATCTCTTAGC (sugars k3 d10 k3, PS) | 64% | –
34 | AAGACAGACCAAGTAG (sugars k3 d10 k3, PS) | 16% | –
35 | AAGACTTTGAGACTCT (sugars k3 d10 k3, PS) | 62% | –
36 | AAGAGCTGGTAAAGGT (sugars k3 d10 k3, PS) | 47% | –
37 | AAGAGGATAGTCCATG (sugars k3 d10 k3, PS) | 65% | –
38 | AAGAGTCAGTATCCTC (sugars kkdddddddddkekek, PS) | 14% | –
39 | AAGATACCCAGGTTGC (sugars k3 d10 k3, PS) | 59% | –
40 | AAGATTAGTTAACCTT (sugars k3 d10 k3, PS) | 24% | –
41 | AAGCATTGTTAGCTAA (sugars k3 d10 k3, PS) | 11% | –
42 | AAGGACTTTCATAGGG (sugars k3 d10 k3, PS) | 71% | –
43 | AAGGATTTCTAGGATG (sugars k3 d10 k3, PS) | 71% | –
44 | AAGGCTTATGAAGTTA (sugars k3 d10 k3, PS) | 61% | –
45 | AAGTTAATAGGACTAA (sugars k3 d10 k3, PS) | 17% | –
46 | AAGTTTTTAAGAGGCA (sugars k3 d10 k3, PS) | 77% | target mRNA inhibition (0.02 µM): 0%; target mRNA inhibition (0.078 µM): 0%; target mRNA inhibition (0.313 µM): 43%; target mRNA inhibition (1.25 µM): 73%; target mRNA inhibition (5 µM): 96%
47 | AATAAAGCTTTGCAGC (sugars k3 d10 k3, PS) | 26% | –
48 | AATAATAGCTCTATTG (sugars kkdddddddddkekek, PS) | 2% | –
49 | AATACATATCTTACTC (sugars k3 d10 k3, PS) | 37% | –
50 | AATACGCTGAGAGTTA (sugars k3 d10 k3, PS) | 48% | –
51 | AATACTAATGTCCAAG (sugars k3 d10 k3, PS) | 65% | –
52 | AATAGAGTCGGTCACC (sugars k3 d1 m1 d8 k3, PS) | 57% | –
53 | AATAGAGTCGGTCACC (sugars kkdddddddddkekek, PS) | 13% | –
